Experiments:
[1] = target: T1, Transporter, Dopamine (DAT) (Homo sapiens, UniProt Q01959); test: Radioligand binding, [125I] RTI-55, Eurofins
T1 construct: host or cells: CHO-S cells

Adrenergic α2A = target: T2, Adrenergic α2A (Homo sapiens, UniProt P08913); test: Radioligand binding, [3H] Rauwolscine, Eurofins
T2 sequence (P08913 1-465): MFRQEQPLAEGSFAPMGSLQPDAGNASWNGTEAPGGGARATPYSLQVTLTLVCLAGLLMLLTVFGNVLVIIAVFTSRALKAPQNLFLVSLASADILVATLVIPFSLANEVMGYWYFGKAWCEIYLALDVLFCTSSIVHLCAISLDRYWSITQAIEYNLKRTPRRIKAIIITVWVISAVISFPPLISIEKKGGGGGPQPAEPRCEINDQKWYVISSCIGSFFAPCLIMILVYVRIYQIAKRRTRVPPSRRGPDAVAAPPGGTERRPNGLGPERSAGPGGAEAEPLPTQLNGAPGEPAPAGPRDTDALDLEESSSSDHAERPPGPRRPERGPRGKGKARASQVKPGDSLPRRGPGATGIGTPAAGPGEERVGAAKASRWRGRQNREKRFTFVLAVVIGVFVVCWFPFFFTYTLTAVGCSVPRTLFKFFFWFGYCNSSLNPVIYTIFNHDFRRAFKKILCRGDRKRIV

[2] = target: T3, Transporter, Norepinephrine (NET) (Homo sapiens, UniProt P23975); test: Radioligand binding, [125I] RTI-55, Eurofins
T3 construct: host or cells: MDCK cells

Dopamine D2L = target: T4, Dopamine D2L (Homo sapiens, UniProt P14416); test: Radioligand binding, [3H] Spiperone, Eurofins
T4 construct: host or cells: CHO cells
T4 sequence (P14416 whole entry): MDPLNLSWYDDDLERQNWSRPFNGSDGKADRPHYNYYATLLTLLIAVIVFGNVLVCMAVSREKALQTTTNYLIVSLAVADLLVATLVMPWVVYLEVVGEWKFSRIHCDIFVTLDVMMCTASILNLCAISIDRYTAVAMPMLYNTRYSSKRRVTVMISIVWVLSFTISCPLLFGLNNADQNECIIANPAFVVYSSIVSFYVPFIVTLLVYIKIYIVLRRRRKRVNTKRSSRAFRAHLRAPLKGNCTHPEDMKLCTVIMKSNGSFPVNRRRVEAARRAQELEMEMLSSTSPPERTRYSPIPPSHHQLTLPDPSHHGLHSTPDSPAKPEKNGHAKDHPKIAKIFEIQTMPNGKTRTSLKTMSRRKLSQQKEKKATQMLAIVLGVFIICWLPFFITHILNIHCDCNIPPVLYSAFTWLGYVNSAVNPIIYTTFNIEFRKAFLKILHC

T3 sequence (P23975 whole entry): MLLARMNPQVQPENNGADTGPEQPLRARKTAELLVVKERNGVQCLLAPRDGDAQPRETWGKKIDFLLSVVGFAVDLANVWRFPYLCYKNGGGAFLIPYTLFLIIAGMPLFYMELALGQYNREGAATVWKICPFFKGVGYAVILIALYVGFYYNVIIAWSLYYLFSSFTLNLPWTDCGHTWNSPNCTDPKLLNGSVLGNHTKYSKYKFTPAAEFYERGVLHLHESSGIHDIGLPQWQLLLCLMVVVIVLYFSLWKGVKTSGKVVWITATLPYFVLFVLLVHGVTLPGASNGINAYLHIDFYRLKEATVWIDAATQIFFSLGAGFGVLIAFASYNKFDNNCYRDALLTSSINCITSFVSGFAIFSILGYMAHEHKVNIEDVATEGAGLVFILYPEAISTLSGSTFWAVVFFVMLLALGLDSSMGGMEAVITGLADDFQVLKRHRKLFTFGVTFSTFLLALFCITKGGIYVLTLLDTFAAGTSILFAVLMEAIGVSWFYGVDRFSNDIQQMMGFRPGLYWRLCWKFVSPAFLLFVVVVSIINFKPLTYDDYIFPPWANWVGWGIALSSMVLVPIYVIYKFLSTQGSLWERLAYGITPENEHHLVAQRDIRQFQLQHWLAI
T1 sequence (Q01959 whole entry): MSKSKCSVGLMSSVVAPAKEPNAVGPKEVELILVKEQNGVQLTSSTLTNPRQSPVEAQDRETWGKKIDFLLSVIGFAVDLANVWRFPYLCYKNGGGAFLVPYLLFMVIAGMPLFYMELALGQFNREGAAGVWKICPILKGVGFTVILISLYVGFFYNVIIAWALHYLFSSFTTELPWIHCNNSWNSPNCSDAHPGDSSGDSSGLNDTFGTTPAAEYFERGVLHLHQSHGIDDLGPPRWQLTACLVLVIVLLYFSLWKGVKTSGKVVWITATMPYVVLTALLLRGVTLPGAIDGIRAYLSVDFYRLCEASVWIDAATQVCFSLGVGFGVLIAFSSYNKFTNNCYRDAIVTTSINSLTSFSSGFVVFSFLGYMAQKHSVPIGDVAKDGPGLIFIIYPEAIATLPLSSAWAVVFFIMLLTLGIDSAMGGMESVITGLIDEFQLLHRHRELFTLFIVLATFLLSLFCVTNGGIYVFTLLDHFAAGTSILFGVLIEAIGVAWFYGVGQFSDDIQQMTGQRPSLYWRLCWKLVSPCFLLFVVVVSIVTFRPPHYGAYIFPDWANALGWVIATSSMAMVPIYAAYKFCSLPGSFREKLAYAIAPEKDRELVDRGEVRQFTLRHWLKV

Question: For `N#Cc1ccc2[nH]cc(C(=O)NCCN3CCN(c4ccc5ccccc5n4)CC3)c2c1` [Compound 29, 5-Cyano-N-(2-(4-(quinolin-2-yl)piperazin-1-yl)ethyl)-1H-indole-3-carboxamide], which “nH (Hill coefficient)” value ([1]; DAT) is on record?
Answer: 0.88

Question: What about the Ki ([1]; DAT, Cheng and Prusoff) of the same compound?
Answer: 46 nM

Question: What about the IC50 ([1]; DAT, human recombinant CHO-S cells) of the same compound?
Answer: 57 nM

Question: And the “times more potent at DAT compared to vanoxerine” value ([1]; ratio of Ki values)?
Answer: 19

Question: And the “nH (Hill coefficient)” value (Adrenergic α2A; Adrenergic α2A)?
Answer: 1.02

Question: And the Ki (Adrenergic α2A; Adrenergic α2A, Cheng and Prusoff)?
Answer: 4110 nM

Question: And the IC50 (Adrenergic α2A; Adrenergic α2A, human recombinant CHO-Ki cells)?
Answer: 8220 nM

Question: And the “times the activity of reference compound yohimbine” value (Adrenergic α2A; ratio of Ki values)?
Answer: 0.25

Question: What about the “nH (Hill coefficient)” value ([2]; NET) of the same compound?
Answer: 0.73

Question: What about the Ki ([2]; NET, Cheng and Prusoff) of the same compound?
Answer: 380 nM

Question: And the IC50 ([2]; NET, human recombinant MDCK cells)?
Answer: 380 nM

Question: And the “times more potent at NET compared to desipramine” value ([2]; ratio of Ki values)?
Answer: 3

Question: What about the “nH (Hill coefficient)” value (Dopamine D2L; Dopamine D2L) of the same compound?
Answer: 0.86

Question: What about the Ki (Dopamine D2L; Dopamine D2L, Cheng and Prusoff) of the same compound?
Answer: 1850 nM

Question: What about the IC50 (Dopamine D2L; Dopamine D2L, human recombinant CHO cells) of the same compound?
Answer: 5540 nM

Question: What about the “times the activity of reference compound spiperone” value (Dopamine D2L; ratio of Ki values) of the same compound?
Answer: 0.02
